From patent EP4745138A1, “THIO-GLUTARIMIDO ISOINDOLINONE DERIVATIVE, BIFUNCTIONAL PROTEIN DEGRADER CONTAINING SAME, AND USES THEREOF” (Gluetacs Therapeutics (Shanghai) Co., Ltd., priority 2023, dated 2025)
Read-outs that look alike come from different tables or passages of the source.

What was measured:
[1] = system: MCF-7; assay: Tumor cell proliferation inhibition (CellTiter-Meiluncell Luminescent Cell Viability Assay); format: cell-based; details: Homo sapiens, 96 hours, Table I-2, ALK inhibitors; for inhibition at 0.01 µM: MCF7, 10 nM, read-out: Inhibition Rate at 10 nM (%); for inhibition at 0.5 µM: MCF7, 500 nM, read-out: Inhibition Rate at 500 nM (%)
Procedure, shortened: (§1)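 Following overnight seeding, tumor cells received serial compound dilutions to final levels that included 10 nM and 500 nM. Viability was assessed by luminescence at the end of the specified exposure time. Cultures were kept at 37°C with 5% CO2.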

[2] = system: MM.1S; assay: as above; format: cell-based; details: Homo sapiens, MM1.S, MM.1S, 96 hours; for inhibition at 0.01 µM: 10 nM, read-out: Inhibition Rate at 10 nM (%); for inhibition at 0.5 µM: 500 nM, read-out: Inhibition Rate at 500 nM (%)
Procedure, shortened: as §1

[3] = system: MV-4-11; assay: as above; format: cell-based; details: Homo sapiens, 96 hours; for inhibition at 0.01 µM: MV4-11, 10 nM, read-out: Inhibition Rate at 10 nM (%); for inhibition at 0.5 µM: MV4-11, 500 nM, read-out: Inhibition Rate at 500 nM (%)
Procedure, shortened: as §1

[4] = molecular target: T1, ALK (Homo sapiens, UniProt Q96SW2+Q9HC35+Q9UM73); assay: Western blot, target protein degradation in H2228 Cell; format: cell-based; details: substrate protein remaining %, treated at 500 nM and 50 nM, 24 hours
T1 construct: endogenous in cells; host or cells: H2228
Protocol: (§2) Conventional Western blot assay was performed to evaluate the effects of the compounds of the present disclosure on the expression of target proteins in cells.
(§3) (1) Cell Seeding and Protein Harvesting: The selected cells were processed according to the cell seeding procedure and protein harvesting procedure in Table II-2. Table II-2 Cell Seeding and Protein Harvesting Procedures
(§4) (2) To the collected supernatant, 5X SDS sample loading buffer was added, followed by denaturation at 95°C for 5 minutes. The denatured samples were then separated by SDS-PAGE electrophoresis on a polyacrylamide gel. Proteins were transferred to a nitrocellulose membrane (0.45 µm NC membrane), blocked with blocking buffer at room temperature for 1 hour, and subjected to antibody incubation and development procedures according to the antibody manufacturer's instructions (Cell Signaling Technology).
(§5) Half-Maximal Degradation Concentration value (the drug concentration required for degrading proteins by 50%, abbreviated as DC50) reads method: comparing the grayscale values of Western blot bands from drug-treated samples with those from blank DMSO-treated controls, and identifying the drug concentration range at which the grayscale value is half that of the DMSO-treated control bands.
(§6) DC50 values can be calculated using ImageJ software to measure grayscale values of Western blot bands from drug-treated samples. The concentration-response curve is fitted to estimate the drug concentration corresponding to half the grayscale value.
(§7) Target protein remaining (%) refers to the percentage of target protein remaining in cells after treatment with protein degrader compounds.
(§8) Calculation method for target protein remaining (%): Use ImageJ software to measure grayscale values of Western blot bands from drug (protein degrader)-treated samples. The grayscale value of drug-treated bands is divided by that of internal control protein bands, and the resulting quotient is normalized to obtain the relative percentage of remaining target protein after protein degrader treatment. Target protein degradation rate(%) = 1−target protein remaining(%). [formula]

[5] = molecular target: T2, human Cereblon WT GST-tagged protein (Homo sapiens, UniProt Q96SW2); assay: CRBN-binding affinity, HTRF (CEREBLON BINDING kit); details: for inhibition at 0.5 µM: read-out: Inhibition Rate at 0.5 µM (%); for inhibition at 2 µM: read-out: Inhibition Rate at 2 µM (%)
T2 construct: purchased CISBIO 64BDCRBNPEH
Procedure, shortened: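 Readout is homogeneous time-resolved fluorescence, measuring displacement of a thalidomide-red tracer from GST-tagged Cereblon detected by a europium anti-GST antibody. Compounds were tested at final 2 µM and 0.5 µM after dilution in diluent #9 (1X).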

[6] = molecular target: T3, CDK9 (Homo sapiens, UniProt P50750); assay: Western blot, target protein degradation in MDA-MB-231 Cell; format: cell-based; details: substrate protein remaining %, treated at 500 nM and 50 nM, 24 hours
T3 construct: endogenous in cells; host or cells: MDA-MB-231
Protocol: as §2, §3, §4, §5, §6, §7, §8

[7] = system: H1975; assay: Tumor cell proliferation inhibition (CellTiter-Meiluncell Luminescent Cell Viability Assay); format: cell-based; details: Homo sapiens, 96 hours, Table I-3, EGFR inhibitors; for inhibition at 0.01 µM: NCI-H1975, 10 nM, read-out: Inhibition Rate at 10 nM (%); for inhibition at 0.5 µM: NCI-H1975, 500 nM, read-out: Inhibition Rate at 500 nM (%)
Procedure, shortened: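 Luminescent viability read-out (CellTiter-Meiluncell) after compound exposure for a specified time; IC50 determined. Seeding was done the day before dosing with serially diluted compound, final concentrations including 500 nM and 10 nM. Culture at 37°C, 5% CO2.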

[8] = system: RPMI-8226; assay: as above; format: cell-based; details: Homo sapiens, 96 hours, Table I-3, EGFR inhibitors
Procedure, shortened: as §1

[9] = system: SW620; assay: as above; format: cell-based; details: Homo sapiens, 96 hours, Table I-3, EGFR inhibitors
Procedure, shortened: as §1

T1 sequence (Q9HC35+Q9UM73 fused): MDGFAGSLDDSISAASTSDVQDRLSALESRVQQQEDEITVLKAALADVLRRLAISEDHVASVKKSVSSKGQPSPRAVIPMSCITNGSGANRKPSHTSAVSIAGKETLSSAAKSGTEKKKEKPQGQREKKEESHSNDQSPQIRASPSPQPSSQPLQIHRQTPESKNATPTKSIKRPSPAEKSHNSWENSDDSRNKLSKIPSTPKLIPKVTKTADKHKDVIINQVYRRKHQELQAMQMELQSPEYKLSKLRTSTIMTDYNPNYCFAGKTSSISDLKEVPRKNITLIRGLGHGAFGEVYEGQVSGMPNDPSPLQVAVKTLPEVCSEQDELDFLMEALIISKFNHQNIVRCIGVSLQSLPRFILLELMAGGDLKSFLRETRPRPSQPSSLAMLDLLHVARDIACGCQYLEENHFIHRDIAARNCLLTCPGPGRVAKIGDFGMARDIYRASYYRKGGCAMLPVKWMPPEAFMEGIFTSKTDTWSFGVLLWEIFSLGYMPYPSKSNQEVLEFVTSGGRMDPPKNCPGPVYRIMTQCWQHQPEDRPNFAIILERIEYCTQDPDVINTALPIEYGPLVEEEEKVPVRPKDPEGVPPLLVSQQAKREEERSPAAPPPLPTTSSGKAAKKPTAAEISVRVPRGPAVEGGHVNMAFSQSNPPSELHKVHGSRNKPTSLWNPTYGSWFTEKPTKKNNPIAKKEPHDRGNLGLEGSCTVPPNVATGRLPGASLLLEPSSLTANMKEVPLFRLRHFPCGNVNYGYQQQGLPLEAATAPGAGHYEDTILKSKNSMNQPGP
T1 sequence (Q96SW2 whole entry): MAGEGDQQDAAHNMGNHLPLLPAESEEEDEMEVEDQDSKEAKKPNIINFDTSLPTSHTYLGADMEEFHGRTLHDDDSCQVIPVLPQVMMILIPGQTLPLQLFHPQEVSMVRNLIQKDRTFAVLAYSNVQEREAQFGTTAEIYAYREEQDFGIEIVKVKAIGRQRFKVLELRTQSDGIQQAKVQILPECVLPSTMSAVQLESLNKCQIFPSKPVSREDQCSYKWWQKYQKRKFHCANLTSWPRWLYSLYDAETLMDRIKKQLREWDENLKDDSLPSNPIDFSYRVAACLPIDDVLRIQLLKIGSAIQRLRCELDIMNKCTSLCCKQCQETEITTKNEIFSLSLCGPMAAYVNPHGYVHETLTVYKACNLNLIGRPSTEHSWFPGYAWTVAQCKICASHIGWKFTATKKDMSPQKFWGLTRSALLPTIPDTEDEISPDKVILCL
T1 sequence (Q16531 whole entry partner): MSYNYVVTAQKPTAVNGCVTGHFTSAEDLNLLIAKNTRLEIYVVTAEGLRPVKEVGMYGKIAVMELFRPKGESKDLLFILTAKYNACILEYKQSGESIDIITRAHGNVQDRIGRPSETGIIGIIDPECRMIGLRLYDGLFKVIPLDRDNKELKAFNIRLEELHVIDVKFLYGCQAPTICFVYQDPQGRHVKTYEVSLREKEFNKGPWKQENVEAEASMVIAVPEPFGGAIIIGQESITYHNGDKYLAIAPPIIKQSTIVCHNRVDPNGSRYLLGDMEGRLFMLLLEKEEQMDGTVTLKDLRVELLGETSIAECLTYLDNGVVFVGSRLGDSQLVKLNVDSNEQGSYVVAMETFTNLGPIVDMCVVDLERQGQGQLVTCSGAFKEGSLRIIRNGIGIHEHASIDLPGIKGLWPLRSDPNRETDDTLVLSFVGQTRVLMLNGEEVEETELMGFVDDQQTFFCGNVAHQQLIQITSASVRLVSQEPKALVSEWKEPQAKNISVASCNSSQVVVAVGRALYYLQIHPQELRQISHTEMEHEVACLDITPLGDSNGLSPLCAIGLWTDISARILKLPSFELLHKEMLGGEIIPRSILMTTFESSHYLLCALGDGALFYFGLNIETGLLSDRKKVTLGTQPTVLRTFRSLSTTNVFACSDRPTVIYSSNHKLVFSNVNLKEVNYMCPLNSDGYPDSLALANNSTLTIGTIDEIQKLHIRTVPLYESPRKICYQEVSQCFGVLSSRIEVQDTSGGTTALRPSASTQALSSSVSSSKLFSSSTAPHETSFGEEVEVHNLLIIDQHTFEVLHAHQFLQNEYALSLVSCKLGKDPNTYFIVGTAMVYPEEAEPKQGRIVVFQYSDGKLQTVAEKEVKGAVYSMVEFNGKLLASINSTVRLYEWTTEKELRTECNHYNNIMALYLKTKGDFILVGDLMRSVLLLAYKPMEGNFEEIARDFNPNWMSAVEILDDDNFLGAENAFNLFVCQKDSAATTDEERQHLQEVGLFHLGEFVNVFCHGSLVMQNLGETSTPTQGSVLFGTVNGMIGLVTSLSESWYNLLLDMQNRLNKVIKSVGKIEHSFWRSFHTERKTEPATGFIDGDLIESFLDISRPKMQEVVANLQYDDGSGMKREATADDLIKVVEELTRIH
T2 sequence (Q96SW2 whole entry): as the sequence (Q96SW2 whole entry) above
T3 sequence (P50750 whole entry): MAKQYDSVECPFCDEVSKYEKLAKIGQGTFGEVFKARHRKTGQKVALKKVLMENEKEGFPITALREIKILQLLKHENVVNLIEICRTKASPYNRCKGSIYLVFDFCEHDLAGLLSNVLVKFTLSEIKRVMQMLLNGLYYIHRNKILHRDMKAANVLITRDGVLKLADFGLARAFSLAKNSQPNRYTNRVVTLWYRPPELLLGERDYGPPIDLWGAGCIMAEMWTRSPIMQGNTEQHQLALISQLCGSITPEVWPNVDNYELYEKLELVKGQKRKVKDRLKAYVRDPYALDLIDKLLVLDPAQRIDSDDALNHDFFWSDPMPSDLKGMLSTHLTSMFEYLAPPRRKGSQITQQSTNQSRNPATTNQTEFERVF

| SMILES | inhibition at 0.01 µM [1] [%] | inhibition at 0.5 µM [1] [%] | inhibition at 0.01 µM ([2]; Table I-2, ALK inhibitors) [%] | inhibition at 0.5 µM ([2]; Table I-2, ALK inhibitors) [%] | inhibition at 0.01 µM ([3]; Table I-2, ALK inhibitors) [%] | inhibition at 0.5 µM ([3]; Table I-2, ALK inhibitors) [%] | Degradation of substrate protein ALK [4] | inhibition at 0.5 µM [5] [%] | inhibition at 2 µM [5] [%] | inhibition at 0.01 µM [7] [%] | inhibition at 0.5 µM [7] [%] | also measured |
| --- | --- | --- | --- | --- | --- | --- | --- | --- | --- | --- | --- | --- |
| COc1cc(N2CCN(Cc3ccc4c(c3)CN(C3CCC(=O)NC3=O)C4=S)CC2)ccc1Nc1ncc(Cl)c(Nc2ccccc2P(C)(C)=O)n1 (centres unmarked) [GT-08675, 3-(5-((4-(4-((5-chloro-4-((2-(dimethylphosphoryl)phenyl)amino)pyrimidin-2-yl)amino)-3-methoxyphenyl)piperazin-1-yl)methyl)-1-thioxoisoindolin-2-yl)piperidine-2,6-dione] | 20 to 30 | 40 to 50 | 10 to 20 | 30 to 40 | 10 to 20 | 70 to 80 | A (0% ≤ substrate protein remaining % ≤ 80%) | 80 to 100 | 80 to 100 |  |  |  |
| Cc1cc(Nc2ncc(Cl)c(Nc3ccccc3S(=O)(=O)C(C)C)n2)c(OC(C)C)cc1C1CCN(Cc2cccc3c2CN(C2CCC(=O)NC2=O)C3=S)CC1 (centres unmarked) [GT-08676, 3-(4-((4-(4-((5-chloro-4-((2-(isopropylsulfonyl)pheny 1)amino)pyrimidin-2-yl)amino)-5-isopropoxy-2-methylphenyl)piperidin-1-yl)methyl)-1-thioxoisoindolin-2-yl)piperidine-2,6-dione] | 40 to 50 | 60 to 70 | 10 to 20 | 30 to 40 | 40 to 50 | 60 to 70 | A (0% ≤ substrate protein remaining % ≤ 80%) | 40 to 53 | 60 to 80 |  |  |  |
| Cc1cc(Nc2ncc(Cl)c(Nc3ccccc3S(=O)(=O)C(C)C)n2)c(OC(C)C)cc1C1CCN(Cc2ccc3c(c2)C(=S)N(C2CCC(=O)NC2=O)C3)CC1 (centres unmarked) [GT-08678, 3-(6-((4-(4-((5-chloro-4-((2-(isopropylsulfonyl)pheny 1)amino)pyrimidin-2-yl)amino)-5-isopropoxy-2-methylphenyl)piperidin-1-yl)methyl)-1-thioxoisoindolin-2-yl)piperidine-2,6-dione] | -20 to -10 | 40 to 50 | 0 to 10 | 50 to 60 |  |  | A (0% ≤ substrate protein remaining % ≤ 80%) | 40 to 53 | 60 to 80 |  |  |  |
| COc1cc(N2CCC(N(C)Cc3ccc4c(c3)C(=S)N(C3CCC(=O)NC3=O)C4)CC2)ccc1Nc1ncc(Cl)c(Nc2ccccc2P(C)(C)=O)n1 (centres unmarked) [GT-08680, 3-(6-(((1-(4-((5-chloro-4-((2-(dimethylphosphoryl)phenyl)amino)pyrimidin-2-yl)amino)-3-methoxyphenyl)piperidin-4-yl)(methyl)amino)methyl)-1-thioxoisoindolin-2-yl)piperidine-2,6-dione] |  |  | 0 to 10 | 50 to 60 | 10 to 20 | 60 to 70 | A (0% ≤ substrate protein remaining % ≤ 80%) | 60 to 80 | 80 to 100 |  |  |  |
| Cn1ncc(-c2nc(NC3CCN(Cc4ccc5c(c4)CN(C4CCC(=O)NC4=O)C5=S)CC3)ncc2Cl)c1CC1CC1 (centres unmarked) [GT-08682, 3-(5-((4-((5-chloro-4-(5-(cyclopropylmethyl)-1-methyl-1H-pyrazol-4-yl)pyrimidin-2-yl)amino)piperidin-1-yl)methyl)-1-thioxoisoindolin-2-yl)piperidine-2,6-dione] |  |  |  |  |  |  |  | 60 to 80 | 80 to 100 |  |  | inhibition at 0.01 µM ([2]; Table I-7, CDK9 inhibitors): 10 to 20%; inhibition at 0.5 µM ([2]; Table I-7, CDK9 inhibitors): 50 to 60%; inhibition at 0.01 µM ([3]; Table I-7, CDK9 inhibitors): 30 to 40%; inhibition at 0.5 µM ([3]; Table I-7, CDK9 inhibitors): 60 to 70%; Degradation of substrate protein CDK9 [6]: A (0% ≤ substrate protein remaining % ≤ 80%) |
| Cn1ncc(-c2nc(NC3CCN(Cc4cccc5c4CN(C4CCC(=O)NC4=O)C5=S)CC3)ncc2Cl)c1CC1CC1 (centres unmarked) [GT-08686, 3-(4-((4-((5-chloro-4-(5-(cyclopropylmethyl)-1-methyl-1H-pyrazol-4-yl)pyrimidin-2-yl)amino)piperidin-1-yl)methyl)-1-thioxoisoindolin-2-yl)piperidine-2,6-dione] |  |  |  |  |  |  |  | 53 to 60 | 80 to 100 |  |  | inhibition at 0.01 µM ([2]; Table I-7, CDK9 inhibitors): 0 to 5%; inhibition at 0.5 µM ([2]; Table I-7, CDK9 inhibitors): 80 to 100%; inhibition at 0.01 µM ([3]; Table I-7, CDK9 inhibitors): 50 to 60%; inhibition at 0.5 µM ([3]; Table I-7, CDK9 inhibitors): 80 to 100%; Degradation of substrate protein CDK9 [6]: A (0% ≤ substrate protein remaining % ≤ 80%) |
| O=C1CCC(N2Cc3cc(CN4C[C@H]5C[C@@H]4CN5c4ccc(-c5cc(F)c6c(c5)C(=O)N(C(C(=O)Nc5nccs5)c5ncn7c5CCC7)C6)cc4)ccc3C2=S)C(=O)N1 (stereo partly drawn) [GT-08757, 2-(6,7-dihydro-5H-pyrrolo[1,2-c]imidazol-1-yl)-2-(6-(4-((1R,4R)-5-((2-(2,6-dioxopiperidin-3-yl)-1-thioxoisoindolin-5-yl)methyl)-2,5-diazabicyclo[2.2.1]heptan-2-yl)phenyl)-4-fluoro-1-oxoisoindolin-2-yl)-N-(thiazol-2-vl)acetamide] |  |  |  |  |  |  |  | 53 to 60 | 60 to 80 | 20 to 30 | 50 to 60 |  |
| O=C1CCC(N2Cc3c(CN4C[C@H]5C[C@@H]4CN5c4ccc(-c5cc(F)c6c(c5)C(=O)N(C(C(=O)Nc5nccs5)c5ncn7c5CCC7)C6)cc4)cccc3C2=S)C(=O)N1 (stereo partly drawn) [GT-08760, 2-(6,7-dihydro-5H-pyrrolo[1,2-c]imidazol-1-yl)-2-(6-(4-((1R,4R)-5-((2-(2,6-dioxopiperidin-3-yl)-1-thioxoisoindolin-4-yl)methyl)-2,5-diazabicyclo[2.2.1]heptan-2-yl)phenyl)-4-fluoro-1-oxoisoindolin-2-yl)-N-(thiazol-2-yl)acetamide] |  |  |  |  |  |  |  | 30 to 40 | 53 to 60 | 20 to 30 | 50 to 60 |  |
| C#Cc1cccc(Nc2ncnc3cc(OCCOC)c(OCCOC)cc23)c1 [erlotinib, Erlotinib, reference compound] |  |  |  |  |  |  |  |  |  | 0 to 5 | 0 to 5 | inhibition at 0.01 µM ([3]; Table I-3, EGFR inhibitors): 0 to 5%; inhibition at 0.5 µM ([3]; Table I-3, EGFR inhibitors): 10 to 20%; inhibition at 0.01 µM ([8]; 10 nM, read-out: Inhibition Rate at 10 nM (%)): 20 to 30%; inhibition at 0.5 µM ([8]; 500 nM, read-out: Inhibition Rate at 500 nM (%)): 20 to 30%; inhibition at 0.01 µM ([9]; SW-620, 10 nM, read-out: Inhibition Rate at 10 nM (%)): 10 to 20%; inhibition at 0.5 µM ([9]; SW-620, 500 nM, read-out: Inhibition Rate at 500 nM (%)): 10 to 20% |
